Values of other authors as cited in patent US20240082217A1, “PROCESS FOR OBTAINING A PURIFIED PS[…] SOLUTION” (PSILO SCIENTIFIC LTD, priority 2020, published 2024).

Details: stated as a property of the alkaloid, freebase form; no measurement described

In the case of CN(C)CCc1c[nH]c2cccc(O)c12 [psilocin], the “isoelectric point (pH)” value is listed as 8.47±0.25 pH.
